Measured values taken from US12528761B2, “Thyromimetics” (Autobahn Therapeutics, Inc., priority 2020, dated 2026).

Molecular target: T1, recombinant human FAAH (rhFAAH) (Homo sapiens, UniProt O00519)
T1 construct: purchased Cayman Chemical (Ann Arbor, MI, USA)
T1 sequence (O00519 1-579): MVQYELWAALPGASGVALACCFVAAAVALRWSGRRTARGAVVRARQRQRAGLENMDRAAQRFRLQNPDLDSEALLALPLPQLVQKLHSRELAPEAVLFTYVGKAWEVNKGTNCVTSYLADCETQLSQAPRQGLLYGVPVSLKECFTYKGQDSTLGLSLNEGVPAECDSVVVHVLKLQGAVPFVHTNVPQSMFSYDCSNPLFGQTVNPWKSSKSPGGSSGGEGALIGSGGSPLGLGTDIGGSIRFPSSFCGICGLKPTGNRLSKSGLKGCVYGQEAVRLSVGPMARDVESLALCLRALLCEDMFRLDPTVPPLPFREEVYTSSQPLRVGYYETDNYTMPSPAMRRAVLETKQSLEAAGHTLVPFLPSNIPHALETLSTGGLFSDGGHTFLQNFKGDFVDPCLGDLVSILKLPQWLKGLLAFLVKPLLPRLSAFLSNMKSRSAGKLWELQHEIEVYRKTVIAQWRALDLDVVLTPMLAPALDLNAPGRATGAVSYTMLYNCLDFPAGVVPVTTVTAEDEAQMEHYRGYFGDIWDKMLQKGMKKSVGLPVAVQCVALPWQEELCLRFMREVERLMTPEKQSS
Test: FAAH substrate evaluation (formation of acid metabolite, LC-MS/MS)
Assay type: biochemical
Set-up: key: A: ke is equal to or less than 1.0; B: ke is greater than 1.0 and less than or equal to 2.5; C: ke is greater than 2.5; NC: no conversion
Details: 0.5 ng/μL rhFAAH, 1 μM test compound, pH 8.0, room temperature, 0-60 minutes
Protocol: Purified recombinant human FAAH (rhFAAH) was purchased from Cayman Chemical (Ann Arbor, MI, USA). The total volume for each incubation was 400 μL containing a final 0.5 ng/μL rhFAAH, 1 μM test compound, 1.25% ethanol or 1 μM PF-3845 (FAAH inhibitor), and 0.1% bovine serum albumin in Tris-EDTA buffer at pH 8.0). The positive control was LL-341001. The incubation was conducted at the room temperature. At 0, 5, 15, 30 and 60 minutes, an aliquot of 30 μL reaction mixtures was removed and mixed with 300 μL acetonitrile containing 5 ng/mL terfenadine and 10 ng/mL tolbutamide as internal standards to quench the reaction. The resulting mixture was centrifuged at 4000 rpm, 4° C. for 15 minutes, and 100 μL supernatant was ready for LC-MS/MS analysis to measure the formation of acid metabolite.
Acquity Ultra Performance LC system from Waters was used for sample analysis. The chromatography was performed on a reverse phase Kinetex 2.6 μm C18 column, 2.1×30 mm, 100 Å. The mobile phase A comprised of 0.1% formic acid in water and mobile phase B comprised of 0.1% formic acid in acetonitrile with a 2-min run time at the flow rate of 0.8 mL/min for the acid metabolite from positive control or a 1.5 min run time at the flow rate of 0.9 mL/min for the acid metabolite of test compounds. The mass spectrometer (API-5500 and API Q Trap 4000 Applied Biosystems/MDS SCIEX Instruments, Framingham, MA, USA) was operated under ESI positive or negative ion MRM mode.
The formation of acid metabolite was monitored and quantified using one calibration point of 1 μM. The observed rate constant (ke) for the acid metabolite formation was calculated by plotting the metabolite concentration versus time of incubation with the slope being ke and is shown in Table 4.

`CNC(=O)/C(C)=C/c1cc(Cl)c(Cc2ccc(O)c(C(C)C)c2F)c(Cl)c1` [Compound 146, (E)-3-(3,5-dichloro-4-(2-fluoro-4-hydroxy-3-isopropylbenzyl)phenyl)-N,2-dimethylacrylamide] was tested, and the “ke, observed rate constant for the acid metabolite formation” value (“ke, observed rate constant” below) was “A (ke is equal to or less than 1.0)”.
`CCNC(=O)CNc1cc(Cl)c(Cc2ccc(O)c(C(C)C)c2F)c(Cl)c1F` [Compound 165, 2-((3,5-dichloro-2-fluoro-4-(2-fluoro-4-hydroxy-3-isopropylbenzyl)phenyl)amino)-N-ethylacetamide] was tested, and the “ke, observed rate constant” value was “A (ke is equal to or less than 1.0)”.
With `CC(C)c1cc(Cc2c(Cl)cc(SCC(=O)Nc3cnccn3)cc2Cl)ccc1O` [Compound 171, 2-((3,5-dichloro-4-(4-hydroxy-3-isopropylbenzyl)phenyl)thio)-N-(pyrazin-2-yl)acetamide] the “ke, observed rate constant” value was “B (ke is greater than 1.0 and less than or equal to 2.5)”.
`CNC(=O)CN(C)c1cc(Cl)c(Cc2ccc(O)c(C(C)C)c2)c(Cl)c1` [Compound 149, 2-((3,5-dichloro-4-(4-hydroxy-3-isopropylbenzyl)phenyl)(methyl)amino)-N-methylacetamide] was tested, and the “ke, observed rate constant” value was “NC”.
With `CNC(=O)CSc1cc(Cl)c(Cc2ccc(O)c(C(C)C)c2)c(C)c1F` [Compound 220, 2-((5-chloro-2-fluoro-4-(4-hydroxy-3-isopropylbenzyl)-3-methylphenyl)thio)-N-methylacetamide] the “ke, observed rate constant” value was “NC”.
For `CC(C)c1cc(Cc2c(Cl)cc(SCC(=O)N3CCCC3)cc2Cl)ccc1O` [Compound 182, 2-((3,5-dichloro-4-(4-hydroxy-3-isopropylbenzyl)phenyl)thio)-1-(pyrrolidin-1-yl)ethan-1-one], the “ke, observed rate constant” value was “A (ke is equal to or less than 1.0)”.
`COc1ccc(NC(=O)CSc2cc(Cl)c(Cc3ccc(O)c(C(C)C)c3)c(Cl)c2)nn1` [Compound 169, 2-((3,5-dichloro-4-(4-hydroxy-3-isopropylbenzyl)phenyl)thio)-N-(6-methoxypyridazin-3-yl)acetamide] was tested, and the “ke, observed rate constant” value was “A (ke is equal to or less than 1.0)”.
For `Cc1cc(SCC(N)=O)cc(Cl)c1Cc1ccc(O)c(C(C)C)c1F` [Compound 234, 2-((3-chloro-4-(2-fluoro-4-hydroxy-3-isopropylbenzyl)-5-methylphenyl)thio)acetamide], the “ke, observed rate constant” value was “C (ke is greater than 2.5)”.
In the case of `CC(C)c1c(O)ccc(Cc2c(Cl)cc(CC(=O)N(C)C)cc2Cl)c1F` [Compound 34, 2-(3,5-dichloro-4-(2-fluoro-4-hydroxy-3-isopropylbenzyl)phenyl)-N,N-dimethylacetamide], the “ke, observed rate constant” value is reported as “NC”.
For `CNC(=O)CNc1cc(Cl)c(Cc2ccc(O)c(C(C)C)c2)c(Cl)c1` [Compound 175, 2-((3,5-dichloro-4-(4-hydroxy-3-isopropylbenzyl)phenyl)amino)-N-methylacetamide], the “ke, observed rate constant” value was “A (ke is equal to or less than 1.0)”.
`CC(C)c1c(O)ccc(Cc2c(Cl)cc(NCC(=O)NCCCF)c(F)c2Cl)c1F` [Compound 155, 2-((3,5-dichloro-2-fluoro-4-(2-fluoro-4-hydroxy-3-isopropylbenzyl)phenyl)amino)-N-(3-fluoropropyl)acetamide] was tested, and the “ke, observed rate constant” value was “A (ke is equal to or less than 1.0)”.
For `CC(C)c1c(O)ccc(Cc2c(Cl)cc(NCC(=O)N[C@@H]3C[C@@H]3F)c(F)c2Cl)c1F` [Compound 156, 2-((3,5-dichloro-2-fluoro-4-(2-fluoro-4-hydroxy-3-isopropylbenzyl)phenyl)amino)-N-((1R,2S)-2-fluorocyclopropyl)acetamide], the “ke, observed rate constant” value was “A (ke is equal to or less than 1.0)”.
For `CCNC(=O)CSc1cc(Cl)c(Cc2ccc(O)c(C(C)C)c2F)c(Cl)c1` [Compound 187, 2-((3,5-dichloro-4-(2-fluoro-4-hydroxy-3-isopropylbenzyl)phenyl)thio)-N-ethylacetamide], the “ke, observed rate constant” value was “A (ke is equal to or less than 1.0)”.
In the case of `CC(C)c1c(O)ccc(Cc2c(Cl)cc(NCC(=O)N(C)C)c(F)c2Cl)c1F` [Compound 166, 2-((3,5-dichloro-2-fluoro-4-(2-fluoro-4-hydroxy-3-isopropylbenzyl)phenyl)amino)-N,N-dimethylacetamide], the “ke, observed rate constant” value is reported as “NC”.
In the case of `CNC(=O)Cc1cc(Cl)c(Cc2ccc(O)c(C(C)C)c2F)c(Cl)c1` [Compound 33, 2-(3,5-dichloro-4-(2-fluoro-4-hydroxy-3-isopropylbenzyl)phenyl)-N-methylacetamide], the “ke, observed rate constant” value is reported as “NC”.
For `CC(C)c1cc(Cc2c(Cl)cc(CSCC(=O)N(C)C)cc2Cl)ccc1O` [Compound 191, 2-((3,5-dichloro-4-(4-hydroxy-3-isopropylbenzyl)benzyl)thio)-N,N-dimethylacetamide], the “ke, observed rate constant” value was “NC”.
`COc1ccc(NC(=O)CNc2cc(Cl)c(Cc3ccc(O)c(C(C)C)c3F)c(Cl)c2F)nn1` [Compound 159, 2-((3,5-dichloro-2-fluoro-4-(2-fluoro-4-hydroxy-3-isopropylbenzyl)phenyl)amino)-N-(6-methoxypyridazin-3-yl)acetamide] was tested, and the “ke, observed rate constant” value was “B (ke is greater than 1.0 and less than or equal to 2.5)”.
`CNC(=O)CSCc1cc(Cl)c(Cc2ccc(O)c(C(C)C)c2)c(Cl)c1` [Compound 193, 2-((3,5-dichloro-4-(4-hydroxy-3-isopropylbenzyl)benzyl)thio)-N-methylacetamide] was tested, and the “ke, observed rate constant” value was “NC”.
In the case of `Cc1cc(CSCC(=O)NC2CCCCC2)cc(Cl)c1Cc1ccc(O)c(C(C)C)c1` [Compound 131, 2-((3-chloro-4-(4-hydroxy-3-isopropylbenzyl)-5-methylbenzyl)thio)-N-cyclohexylacetamide], the “ke, observed rate constant” value is reported as “NC”.
For `CNC(=O)CNc1cc(Cl)c(Cc2ccc(O)c(C(C)C)c2F)c(C)c1F` [Compound 136, 2-((5-chloro-2-fluoro-4-(2-fluoro-4-hydroxy-3-isopropylbenzyl)-3-methylphenyl)amino)-N-methylacetamide], the “ke, observed rate constant” value was “A (ke is equal to or less than 1.0)”.
With `CNC(=O)CCc1cc(Cl)c(Cc2ccc(O)c(C(C)C)c2)c(Cl)c1` [Compound 12, 3-(3,5-dichloro-4-(4-hydroxy-3-isopropylbenzyl)phenyl)-N-methylpropanamide] the “ke, observed rate constant” value was “A (ke is equal to or less than 1.0)”.
In the case of `CC(C)c1cc(Cc2c(Cl)cc(SCC(=O)N(C)C)cc2Cl)ccc1O` [Compound 194, 2-((3,5-dichloro-4-(4-hydroxy-3-isopropylbenzyl)phenyl)thio)-N,N-dimethylacetamide], the “ke, observed rate constant” value is reported as “NC”.
`CC(C)c1cc(Cc2c(Cl)cc(SCC(=O)Nc3cccnc3)cc2Cl)ccc1O` [Compound 170, 2-((3,5-dichloro-4-(4-hydroxy-3-isopropylbenzyl)phenyl)thio)-N-(pyridin-3-yl)acetamide] was tested, and the “ke, observed rate constant” value was “C (ke is greater than 2.5)”.
For `Cc1cc(CSCC(=O)N(C)C)cc(Cl)c1Cc1ccc(O)c(C(C)C)c1` [Compound 231, 2-((3-chloro-4-(4-hydroxy-3-isopropylbenzyl)-5-methylbenzyl)thio)-N,N-dimethylacetamide], the “ke, observed rate constant” value was “A (ke is equal to or less than 1.0)”.
For `CC(C)c1cc(Cc2c(Cl)cc(SCC(=O)NCc3ccccc3)cc2Cl)ccc1O` [Compound 184, N-benzyl-2-((3,5-dichloro-4-(4-hydroxy-3-isopropylbenzyl)phenyl)thio)acetamide], the “ke, observed rate constant” value was “A (ke is equal to or less than 1.0)”.
